For the experiment, the target named is T1, hr AT1 (Homo sapiens, UniProt P30556).
T1 sequence (P30556 1-359): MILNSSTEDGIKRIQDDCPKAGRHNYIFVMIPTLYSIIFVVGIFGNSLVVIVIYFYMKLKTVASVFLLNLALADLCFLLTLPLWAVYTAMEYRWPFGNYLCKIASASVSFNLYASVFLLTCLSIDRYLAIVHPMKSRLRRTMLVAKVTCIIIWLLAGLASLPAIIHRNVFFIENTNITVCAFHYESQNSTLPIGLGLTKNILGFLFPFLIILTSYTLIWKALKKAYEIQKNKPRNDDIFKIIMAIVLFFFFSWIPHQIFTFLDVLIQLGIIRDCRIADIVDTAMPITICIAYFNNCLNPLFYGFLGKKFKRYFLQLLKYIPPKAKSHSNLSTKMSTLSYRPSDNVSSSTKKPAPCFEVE
The experiment can be described thus: receptor profile (Table S4). The experiment is classed as binding.

`Cc1nc(C)c(C(=O)Nc2ccc(F)c(-c3nc4ncc(-c5ncccc5C)cn4n3)c2)o1` [compound 1, N-(4-Fluoro-3-(6-(3-methylpyridin-2-yl)-[1,2,4]triazolo[1,5-a]pyrimidin-2-yl)phenyl)-2,4-dimethyloxazole-5-carboxamide] yielded an EC50/IC50 (hr AT1) above 30 µM. Moreover, the inhibition at 10 µM (read-out: % inh/act @ 10 µM) amounted to 22%. Further, for the setting “read-out: % inh/act @ 30 µM”, the inhibition at 30 µM came to 41%.

The values above are taken from article PMC7549094 (Journal of Medicinal Chemistry, 2020).
